The term IC50 denotes the concentration at which inhibition is half-maximal. The Papp A→B is the apparent permeability from the apical to the basolateral side of a cell layer. Lower therefore signals slow passage.

These results are taken from patent publication US20230192661A1, “1, 4, 5, 6-TETRAHYDROPYRIMIDINE-2-AMINE DERIVATIVE” (UBE Corporation, priority 2020, published 2023).

The subject of series [1] is TGF-β activation (phosphorylated SMAD3). As to the kind of experiment: TGF-β activation inhibition test (inhibition of SMAD3 phosphorylation in TFK-1 cells). Type of series: cell-based. Conditions: 48 h, fibronectin-coated plate, cultured 2 days, read-out: IC50 (rate of inhibition of phosphorylated SMAD3). As to the method:
In Test Example 3, the inhibition of TGF-β activation by a compound was detected with the inhibition of SMAD3 phosphorylation as an index. In Test Example 3, the same reagents as in Test Example 1 were used unless otherwise specified.
Human fibronectin was prepared at 14 μg/mL with PBS and then dispensed at 50 μL/well to a 96-well plate. The plate was left standing at room temperature for 1 hour or longer, followed by the removal of the fibronectin solution. The plate was washed with PBS and used as a coated plate.
A test compound dissolved in DMSO was added to RPMI medium 1640 (manufactured by Thermo Fisher Scientific, Inc., 11875) containing 1% FBS and 1% penicillin/streptomycin/amphotericin B to prepare a medium containing the test compound having a concentration of two times the final concentration. This medium was added at 100 μL/well to the coated plate. TFK-1 cells (Cell Resource Center for Biomedical Research, Institute of Development, Aging and Cancer, Tohoku University) cultured in RPMI medium 1640 containing 10% FBS and 1% penicillin/streptomycin/amphotericin B were suspended in RPMI medium 1640 containing 1% FBS and 1% penicillin/streptomycin/amphotericin B to prepare a cell suspension of 1×10^6 cells/mL. The prepared cell suspension was further added at 100 μL/well and cultured for 2 days in a 5% CO2 incubator (37° C.).
Phosphorylated SMAD3 in the cells thus cultured for 2 days was measured using Phospho-SMAD3 (Ser423/425) cellular kit (manufactured by cisbio, 63ADK025), and a DeltaF value was calculated according to the calculation expression of the kit. Inhibition when 10 μM LY364947 (FUJIFILM Wako Pure Chemical Corp., 123-05981) was added instead of the test compound was defined as 100% inhibition, and inhibition when DMSO was added instead was defined as 0% inhibition. The rate of inhibition of phosphorylated SMAD3 by the test compound was calculated according to the following expression.
Rate of inhibition of phosphorylated SMAD3 (%)=[1−{(DeltaF value in the case of adding the test compound)−(DeltaF value in the case of adding 10 μM LY364947)}/{(DeltaF value in the case of adding DMSO)−(DeltaF value in the case of adding 10 μM LY364947)}]×100
An IC50 value was calculated from the rate of inhibition of phosphorylated SMAD3 by the test compound. A: IC50<10 nM, B: 10 nM≤IC50<50 nM, C: 50 nM≤IC50<100 nM, or D: IC50≥100 nM.

Series [2] in a line: Transcellular transport test using Caco2 cell. Format: in vitro ADME. The note with it: human, Caco-2; Caco2 monolayer, A-to-B, 10 μM compound, pH 7.4, 90 minutes. As to the method: Caco2 cells (purchased from ATCC) were cultured in DMEM medium (Thermo Fisher Scientific, Inc., 11965) containing 10% FBS (Thermo Fisher Scientific, Inc., 10082) and 1% penicillin/streptomycin/amphotericin B (Thermo Fisher Scientific, Inc., 15240). A transcellular transport test was carried out in accordance with MultiScreen Caco2 Drug Transport Assembly in a 96-well system (Application Note AN1727EN, MultiScreen Caco-2 Assay System, Merck) by partially modifying it. The Caco2 cells were inoculated at a cell density of 4×10^4 cells/well onto a micropore polycarbonate insert of a 96-well plate (Merck, Millcell-96 culture insert plate 0.4 μm pore size, well membrane area=0.11 cm^2, PSHT004S5) and cultured for 20 to 22 days, and the resulting monolayer was used in the transcellular transport test. The medium of the inoculated cells was replaced with a fresh one every 3 to 4 days.
Apical-to-basolateral (A-to-B) transport in the Caco2 cell monolayer membrane was performed by using HBSS (Thermo Fisher Scientific, Inc., 14025) medium (pH=7.4) containing 20 mM HEPES (Thermo Fisher Scientific, Inc., 15630), and adding HEPES-containing HBSS medium containing 10 μM compound (a 10 mM solution of the compound in DMSO was added at a 1000-fold dilution; final DMSO concentration: 0.1%) at 75 μL/well to the apical side and HEPES-containing HBSS medium supplemented with no compound at 250 μL/well to the basolateral side, followed by culture at 37° C. for 90 minutes. After culture, a 100 μL aliquot was collected from the basolateral side, and the concentration of a permeated compound was measured by LC-MS/MS under measurement conditions mentioned later. Papp (apparent permeability; cm/sec) was calculated from the determined concentration. Papp was determined according to the expression given below by calculating the slope (dA/dt; nmol/sec) of a straight line drawn between two points 0 minutes and zero amount of the compound in a graph plotted with an assay time (90 min) on the abscissa against the amount of the compound in the solution on the permeated side on the ordinate. As for an assay concentration, the concentration in the compound in the HEPES-containing HBSS medium containing the added compound was measured by UV-HPLC under measurement conditions mentioned later.
Papp (cm/sec)=C0×S×(dA/dt)
C0: assay concentration, S: plate membrane area=0.11 cm^2

In the case of `O=C(O)C[C@H](NC(=O)CNC(=O)c1cc(NC2=NCC(F)CN2)c2cn[nH]c2c1)c1cccc(OC(F)F)c1` (stereo partly drawn) [Example 37-(b), (3S)-3-(3-(difluoromethoxy)phenyl)-3-(2-(4-((5-fluoro-1,4,5,6-tetrahydropyrimidin-2-yl)amino)-1H-indazole-6-carboxamido)acetamido)propanoic acid], in series [1], the concentration for half-maximal inhibition (IC50) was less than 10 nM. The Papp A→B at 90 min, 10 μM in series [2] was more than 1 ×10⁻⁶ cm/s.

Take `O=C(O)C[C@H](NC(=O)CNC(=O)c1cc(NC2=NCC(F)CN2)c2cn[nH]c2c1)c1cc(Br)cc(Br)c1` (stereo partly drawn) [Example 19-(b), (3S)-3-(3,5-dibromophenyl)-3-(2-(4-((5-fluoro-1,4,5,6-tetrahydropyrimidin-2-yl)amino)-1H-indazole-6-carboxamido)acetamido)propanoic acid]: the IC50 in series [1] was less than 10 nM. In series [2], this compound returned an apparent permeability from apical to basolateral (Papp A→B) at 90 min, 10 μM of more than 1 ×10⁻⁶ cm/s.

As for `O=C(O)C[C@H](NC(=O)CNC(=O)c1cc(NC2=NCC(F)CN2)c2cn[nH]c2c1)c1cc(Br)cc(C(F)(F)F)c1` (stereo partly drawn) [Example 2-(b), (3S)-3-(3-bromo-5-(trifluoromethyl)phenyl)-3-(2-(4-((5-fluoro-1,4,5,6-tetrahydropyrimidin-2-yl)amino)-1H-indazole-6-carboxamido)acetamido)propanoic acid], the 50% inhibitory concentration (IC50) in series [1] is less than 10 nM. The compound further showed an apical-to-basolateral permeability (Papp A→B) at 90 min, 10 μM in series [2] of 0.5 to 1 ×10⁻⁶ cm/s.

With `O=C(O)C[C@H](NC(=O)CNC(=O)c1cc(NC2=NCC(F)CN2)c2cn[nH]c2c1)c1cccc(N2CCOCC2)c1` (stereo partly drawn) [Example 45-(b), (3S)-3-(2-(4-((5-fluoro-1,4,5,6-tetrahydropyrimidin-2-yl)amino)-1H-indazole-6-carboxamido)acetamido)-3-(3-morpholinophenyl)propanoic acid], the IC50 in series [1] was 10 to 50 nM. The Papp A→B at 90 min, 10 μM in series [2] was 0.5 to 1 ×10⁻⁶ cm/s.

As for `O=C(O)C[C@H](NC(=O)CNC(=O)c1cc(NC2=NCC(F)CN2)c2cn[nH]c2c1)c1cc(Cl)cc(I)c1` (stereo partly drawn) [Example 21-(b), (3S)-3-(3-chloro-5-iodophenyl)-3-(2-(4-((5-fluoro-1,4,5,6-tetrahydropyrimidin-2-yl)amino)-1H-indazole-6-carboxamido)acetamido)propanoic acid], the half-inhibitory concentration (IC50) in series [1] was less than 10 nM. This compound had a Papp A→B at 90 min, 10 μM in series [2] of more than 1 ×10⁻⁶ cm/s.

In the case of `O=C(O)C[C@H](NC(=O)CNC(=O)c1cc(NC2=NCC(F)CN2)c2cn[nH]c2c1)c1cc(Cl)cc(C(F)(F)F)c1` (stereo partly drawn) [Example 1-(b), (3S)-3-(3-chloro-5-(trifluoromethyl)phenyl)-3-(2-(4-((5-fluoro-1,4,5,6-tetrahydropyrimidin-2-yl)amino)-1H-indazole-6-carboxamido)acetamido)propanoic acid], in series [1], the half-maximal inhibitory concentration (IC50) was less than 10 nM. This compound also showed an apparent permeability from apical to basolateral (Papp A→B) at 90 min, 10 μM in series [2] of more than 1 ×10⁻⁶ cm/s.

As to `O=C(O)C[C@H](NC(=O)CNC(=O)c1cc(NC2=NCC(F)CN2)cc2[nH]ncc12)c1cc(Cl)cc(C(F)(F)F)c1` (stereo partly drawn) [Example 52-(b), (3S)-3-(3-chloro-5-(trifluoromethyl)phenyl)-3-(2-(6-((5-fluoro-1,4,5,6-tetrahydropyrimidin-2-yl)amino)-1H-indazole-4-carboxamido)acetamido)propanoic acid], the IC50 in series [1] is less than 10 nM. This compound also registered a Papp A→B at 90 min, 10 μM in series [2] of 0.1 to 0.5 ×10⁻⁶ cm/s.

As for `O=C(O)C[C@H](NC(=O)CNC(=O)c1cc(NC2=NCC(F)CN2)c2cn[nH]c2c1)c1ccc(F)c(C(F)(F)F)c1` (stereo partly drawn) [Example 13-(b), (3S)-3-(2-(4-((5-fluoro-1,4,5,6-tetrahydropyrimidin-2-yl)amino)-1H-indazole-6-carboxamido)acetamido)-3-(4-fluoro-3-(trifluoromethyl)phenyl)propanoic acid], the concentration for half-maximal inhibition (IC50) in series [1] was in the range of 10 to 50 nM. Further, the Papp A→B at 90 min, 10 μM in series [2] is more than 1 ×10⁻⁶ cm/s.

In the case of `O=C(O)C[C@H](NC(=O)CNC(=O)c1cc(NC2=NCC(F)CN2)c2cn[nH]c2c1)c1cccc(OC2CC2)c1` (stereo partly drawn) [Example 40-(b), (3S)-3-(3-cyclopropoxyphenyl)-3-(2-(4-((5-fluoro-1,4,5,6-tetrahydropyrimidin-2-yl)amino)-1H-indazole-6-carboxamido)acetamido)propanoic acid], the IC50 in series [1] is 10 to 50 nM. This compound had an apparent permeability from apical to basolateral (Papp A→B) at 90 min, 10 μM in series [2] of more than 1 ×10⁻⁶ cm/s.

Turning to `O=C(O)C[C@H](NC(=O)CNC(=O)c1cc(NC2=NCC(F)CN2)c2cn[nH]c2c1)c1cc(F)cc(C(F)(F)F)c1` (stereo partly drawn) [Example 6-(b), (3S)-3-(2-(4-((5-fluoro-1,4,5,6-tetrahydropyrimidin-2-yl)amino)-1H-indazole-6-carboxamido)acetamido)-3-(3-fluoro-5-(trifluoromethyl)phenyl)propanoic acid], the IC50 in series [1] lay within 10 to 50 nM. The same compound returned an apparent permeability from apical to basolateral (Papp A→B) at 90 min, 10 μM in series [2] of more than 1 ×10⁻⁶ cm/s.

On to `O=C(O)C[C@H](NC(=O)CNC(=O)c1cc(NC2=NCC(F)CN2)c2cn[nH]c2c1)c1cc(Cl)cc(OC(F)(F)F)c1` (stereo partly drawn) [Example 31-(b), (3S)-3-(3-chloro-5-(trifluoromethoxy)phenyl)-3-(2-(4-((5-fluoro-1,4,5,6-tetrahydropyrimidin-2-yl)amino)-1H-indazole-6-carboxamido)acetamido)propanoic acid], for which, in series [1], the IC50 is less than 10 nM. This compound also returned a Papp A→B at 90 min, 10 μM in series [2] of more than 1 ×10⁻⁶ cm/s.

For the compound `O=C(O)C[C@H](NC(=O)CNC(=O)c1cc(NC2=NCC(F)CN2)c2cn[nH]c2c1)c1cc(C(F)(F)F)cc(C(F)(F)F)c1` (stereo partly drawn) [Example 7-(b), (3S)-3-(3,5-bis(trifluoromethyl)phenyl)-3-(2-(4-((5-fluoro-1,4,5,6-tetrahydropyrimidin-2-yl)amino)-1H-indazole-6-carboxamido)acetamido)propanoic acid], the IC50 in series [1] was less than 10 nM. In addition, the apical-to-basolateral permeability (Papp A→B) at 90 min, 10 μM in series [2] was 0.5 to 1 ×10⁻⁶ cm/s.

For `O=C(O)C[C@H](NC(=O)CNC(=O)c1cc(NC2=NCC(F)CN2)c2cn[nH]c2c1)c1cc(Cl)c(F)c(C(F)(F)F)c1` (stereo partly drawn) [Example 15-(b), (3S)-3-(3-chloro-4-fluoro-5-(trifluoromethyl)phenyl)-3-(2-(4-((5-fluoro-1,4,5,6-tetrahydropyrimidin-2-yl)amino)-1H-indazole-6-carboxamido)acetamido)propanoic acid], the IC50 in series [1] is less than 10 nM. Besides, in series [2], the Papp A→B at 90 min, 10 μM is more than 1 ×10⁻⁶ cm/s.

Regarding `COc1cc([C@H](CC(=O)O)NC(=O)CNC(=O)c2cc(NC3=NCC(F)CN3)c3cn[nH]c3c2)cc(C(F)(F)F)c1` (stereo partly drawn) [Example 5-(b), (3S)-3-(2-(4-((5-fluoro-1,4,5,6-tetrahydropyrimidin-2-yl)amino)-1H-indazole-6-carboxamido)acetamido)-3-(3-methoxy-5-(trifluoromethyl)phenyl)propanoic acid], the half-maximal inhibitory concentration (IC50) in series [1] lay in the range of 10 to 50 nM. Also, the apical-to-basolateral permeability (Papp A→B) at 90 min, 10 μM in series [2] lay within 0.5 to 1 ×10⁻⁶ cm/s.

With `O=C(O)C[C@H](NC(=O)CNC(=O)c1cc(NC2=NCC(F)CN2)c2cn[nH]c2c1)c1cc(Br)ccc1F` (stereo partly drawn) [Example 23-(b), (3S)-3-(5-bromo-2-fluorophenyl)-3-(2-(4-((5-fluoro-1,4,5,6-tetrahydropyrimidin-2-yl)amino)-1H-indazole-6-carboxamido)acetamido)propanoic acid], in series [1], the 50% inhibitory concentration (IC50) fell in the range of 10 to 50 nM. The Papp A→B at 90 min, 10 μM in series [2] is more than 1 ×10⁻⁶ cm/s.
